“Also recorded” adds a separate entry of the source. Read-outs that look alike come from different tables or passages of the source.
Assays:
[1] = test system: glycine binding site of the NMDA receptor; details: literature, cited from earlier work
[2] = cited from earlier work
[3] = test system: non-NMDA glutamate receptors; details: literature, cited from earlier work
neurons = details: literature, cited from earlier work
animals = details: literature; cited from earlier work
[4] = target: T1, glycine binding site of the NMDA receptor (Rattus norvegicus, UniProt P35439); assay: 1 μM glycine-stimulated [3H]-MK801 binding assay, brain membrane homogenates
T1 construct: rat brain membrane homogenates that are enriched in NMDA receptors; tissue Pel-Freez, Rogers, Arkansas (frozen rat brains); host or cells: rat brain membrane homogenate
Procedure: This assay takes advantage of the dependence of the binding of [^3 H]-MK801 to the PCP receptor inside the pore of the NMDA channel on the presence of both glutamate and glycine. In the absence of glycine, but in the presence of glutamate, [^3 H]-MK801 cannot bind effectively to the PCP receptor because the NMDA channel remains closed and access of [^3 H]-MK801 to the PCP receptor inside the closed channel pore is severely restted.
The assay is conducted using rat brain membrane homogenates that are enriched in NMDA receptors. The membranes are prepared as follows. Frozen rat brains (obtained from Pel-Freez, Rogers, Arkansas) are homogenized in 15 volumes (w/v) of ice cold 0.32 M sucrose. The homogenate is spun at 1,000×g for ten minutes. The supernatant is collected and spun for 20 minutes at 44,000×g. The pellet is suspended in 15 volumes of water (relative to original brain weight). The homogenate is again spun at 44,000×g for twenty minutes. The pellet is resuspended in 5 volumes of water and the suspension is freeze-thawed 2 times. After the final thaw cycle, the suspension is brought to 15 volumes with water and spun at 44,000×g for twenty minutes. The pellet is resuspended in 5 volumes of ice-cold 10 mM HEPES, and is titrated to pH 7.4 with KOH containing 0.04% Triton X-100. Membranes are incubated with the Triton/HEPES buffer at 37° C. for 15 minutes. The volume is then brought to 15 with ice-cold 10 mM HEPES, pH 7.4, and spun/washed three times with spins of 44,000×g between washes. The final pellet is suspended in three volumes of 50 mM HEPES, pH 7.4, and the protein concentration is determined with a standard dye-binding protein assay (Bio-Rad, Richmond, Calif.). The suspension is stored at -80° C. until used. Only HPLC grade water is used for all buffers and suspensions/washings. The extensive washings are necessary to remove as much endogenous glycine from the membrane preparation as possible.
Nonspecific binding is defined as the difference in binding that occurs in the absence or presence of-PCP (final concentration: 100 μM). To determine the effect of 1 μM glycine on the binding of [^3 H]-MK801, bound radioactivity in the presence of 10 μM glutamate alone (final concentration) is subtracted from the bound radioactivity in the presence of both 10 μM glutamate and 1 μM glycine (final concentration). A 500 nM concentration (final) of 5,7-dichlorokynurenic (DCK) acid is added to all assay tubes. This concentration of the glycine antagonist DCK "buffers" most of the residual endogenous glycine that is not removed by the extensive washing steps that are carried out during the membrane preparation procedure.
The assays are incubated for 120 minutes at room temperature after which time the membrane-bound radioactivity is isolated from the free radioactivity by vacuum filtration through Whatman glass fiber filters that had been pretreated with 0.3% polyethyleneimine. Filtration is accomplished using a Brandel,48 well cell harvester. Filtered membranes are washed three times with 3 mL each of ice cold buffer. Filters are transferred to scintillation vials and 5 mL of scintillation cocktail is added. The vials are shaken overnight and the radioactivity is counted by liquid scintillation spectroscopy. The assays are done in triplicate and all experiments are conducted at least three times.

glycine binding site = glycine binding site (Rattus norvegicus, UniProt P35439); assay: affinity for the glycine binding site / glycine/NMDA receptor (Ki; method not stated); details: for times less active than 6,7-dichloro-5-nitro-1,4-dihydroquinoxaline-2,3-dione at the glycine/NMDA receptor: from Ki
Text: The binding affinities of quinoxaline-2,3-diones at NMDA receptor glycine sites also were estimated by electrophysiological assays with either cloned rat NMDA receptors expressed in Xenopus oocytes, or non-NMDA receptors expressed in oocytes by whole rat brain poly(A)^+ RNA. […] For NMDA receptors Ki values were approximated by averaging values at three subtype combinations (NR1A/NR2A, NR1A/NR2B, and NR1A/NR2C).

[5] = penetration of the blood/brain barrier, access to the central nervous system; format: in vivo; details: inferred from Ki and MES ED50
mice = assay: anticonvulsant activity in maximum electroshock seizure (MES) experiments in mice; format: in vivo, male Swiss/Webster mice; details: for ED50 / ED100: Mus musculus; for ED100 / ED50 (MES) / IV peak of action: Table IV
Procedure: The seizure stimulus parameters were: 50 mA, 60 Hz, rectangular pulse, width 0.8 msec, duration 200 msec. Tonic hind limb extension observed after application of the electrical stimulus was recorded as occurrence of seizure. The drug was applied i.v. as an aqueous Tris (Tromethamine) solution.

[6] = listed as 6,7-dinitroquinoxaline-2,3-dione
[7] = Table II, footnote b, from binding assays, read-out: Ki
[8] = read-out: Ki, affinity for the glycine/NMDA receptor
[9] = iv, Table III, i.v. injection, read-out: ED50 (MES)
[10] = route not stated, read-out: ED50 as an anticonvulsant in the MES experiment in mice

## NC1CCN(O)C1=O (racemic) [HA-966]
[1]
  glycine site antagonism or affinity (words): partial agonist with only micromolar affinity for the glycine binding site
[2]; literature
  penetration of the blood/brain barrier (words): sufficiently penetrates the blood/brain barrier

## NS(=O)(=O)c1cccc2c1c([N+](=O)[O-])cc1nc(O)c(O)nc12 [2,3-dihydroxy-6-nitro-7-sulfamoyl-benzo (F) quinoxaline]
[3]
  antagonism at kainate / AMPA / non-NMDA receptors: AMPA selective
neurons
  neuroprotective efficacy: neuroprotective in cerebral ischemia models

## O=C(O)c1cc(O)c2c(Cl)cc(Cl)cc2n1 [5,7-dichlorokynurenic acid]
[1]
  glycine site antagonism or affinity (words): relatively high receptor binding affinity in vitro
[2]; in vivo
  penetration of the blood/brain barrier (words): cannot penetrate the blood/brain barrier

## O=c1[nH]c2cc([N+](=O)[O-])cc([N+](=O)[O-])c2[nH]c1=O [5,7-dinitro-1,4-dihydroquinoxaline-2,3-dione]
animals
  in vivo activity: has anticonvulsant properties
[1]
  glycine site antagonism or affinity (words): potent-antagonist of the strychnine insensitive glycine receptor
[2]; literature
  penetration of the blood/brain barrier (words): poor access to the central nervous system

## O=c1[nH]c2cc([N+](=O)[O-])c([N+](=O)[O-])cc2[nH]c1=O [6,7-dinitro-1,4-dihydroquinoxaline-2,3-dione]
[3]
  antagonism at kainate / AMPA / non-NMDA receptors: more potent antagonists of kainate than glycine; also recorded: potent non-NMDA glutamate receptor antagonists
[3]; [6]
  antagonism at kainate / AMPA / non-NMDA receptors: AMPA
neurons
  neuroprotective efficacy: neuroprotective activity
neurons; [6]
  neuroprotective efficacy: neuroprotective in vitro
animals
  in vivo activity: antagonize responses mediated by NMDA-associated glycine recognition sites in vivo
[1]
  glycine site antagonism or affinity (words): can antagonize the responses to L-glutamate by interacting with the glycine recognition sites; also recorded: inhibit [^3 H] glycine binding to the strychnine-insensitive glycine binding sites
[1]; [6]
  glycine site antagonism or affinity (words): glycine antagonists
[2]; literature, listed as DNQX
  penetration of the blood/brain barrier (words): poor access to the central nervous system

## O=C(O)[C@@H]1C[C@H](CP(=O)(O)O)CCN1 [CGS 19755]
neurons
  neuroprotective efficacy: have neuroprotective efficacy

## Cc1c([N+](=O)[O-])c([N+](=O)[O-])c(Cl)c2[nH]c(=O)c(=O)[nH]c12 [Cl NO2 NO2 Me, 5-Chloro-6,7-dinitro-8-methyl-2,3-quinoxalinedione]
[4]
  Ki: 3800 nM

## CCc1cc2[nH]c(=O)c(=O)[nH]c2cc1Cl [H Cl Et H, 6-Chloro-7-ethyl-1,4-dihydroquinoxaline-2,3-dione]
[4]
  Ki: 730 nM

## CCc1cc2[nH]c(=O)c(=O)[nH]c2cc1CC [H Et Et H, 6,7-Diethyl-1,4-dihydroquinoxaline-2,3-dione]
[4]
  Ki: 800 nM

## Cc1ccc2[nH]c(=O)c(=O)[nH]c2c1 [H Me H H, 6-Methyl-1,4-dihydro-2,3-quinoxalinedione]
[4]; [7]
  Ki: 9000 nM

## [N-]=[N+]=Nc1ccc2[nH]c(=O)c(=O)[nH]c2c1 [H N3 H H, 6-azidol-1,4-dihydroquinoxaline-2,3-dione]
Glycine binding site; Table I, compared with other 6-substituted derivatives
  binding to the glycine binding site: quite favorably binds
Glycine binding site; Table I, read-out: Ki
  Ki: 210 nM
[4]; [7]
  Ki: 910 nM

## O=C(O)C1CC2CC(CP(=O)(O)O)CCC2CN1 (stereo not drawn) [LY274614]
neurons
  neuroprotective efficacy: have neuroprotective efficacy

## Cc1c(Cl)cc2nc(O)c(O)nc2c1N [NH2 Me Cl H, 5-Amino-7-chloro-1,4-dihydro-6-methylquinoxaline-2,3-dione]
[4]
  Ki: 500 nM

## CCc1cc2nc(O)c(O)nc2c([N+](=O)[O-])c1Cl [NO2 Cl Et H, 6-Chloro-7-ethyl-5-nitro-1,4-dihydroquinoxaline-2,3-dione]
[4]
  Ki: 40 nM

## CCc1c(Cl)cc2nc(O)c(O)nc2c1[N+](=O)[O-] [NO2 Et Cl H, 7-Chloro-6-ethyl-5-nitro-1,4-dihydroquinoxaline-2,3-dione]
[4]
  Ki: 200 nM

## O=c1[nH]c2c(F)c(Cl)c(F)c([N+](=O)[O-])c2[nH]c1=O [NO2 F Cl F, 7-Chloro-6,8-difluoro-5-nitro-1,4-dihydroquinoxaline-2,3-dione]
[5]
  times better in crossing the blood brain barrier than 6,7-dichloro-5-nitro-1,4-dihydroquinoxaline-2,3-dione: about 100 times
Glycine binding site
  times less active than 6,7-dichloro-5-nitro-1,4-dihydroquinoxaline-2,3-dione at the glycine/NMDA receptor: about 50 times
Glycine binding site; [8]
  Ki: 170 nM
mice; [9]
  ED50: 2 to 3 mg/kg
mice; i.v.
  ED100: 5 mg/kg
  ED50 (MES): 2 to 3 mg/kg
  IV peak of action: 2 to 5 min
mice; [10]
  ED50: 2 to 3 mg/kg
mice; i.v., 5 mg/kg
  % protection after 60 min.: 50%

## O=c1[nH]c2cc(F)c(F)c([N+](=O)[O-])c2[nH]c1=O [NO2 F F H, 6,7-Difluoro-5-nitro-1,4-dihydro-2,3-quinoxalinedione]
[5]
  times better in crossing the blood brain barrier than 6,7-dichloro-5-nitro-1,4-dihydroquinoxaline-2,3-dione: about 100 times
Glycine binding site
  times less active than 6,7-dichloro-5-nitro-1,4-dihydroquinoxaline-2,3-dione at the glycine/NMDA receptor: more than 20 times
Glycine binding site; [8]
  Ki: 87 nM
mice; [9]
  ED50: 0.7 to 0.8 mg/kg
mice; i.v.
  ED100: 2.5 mg/kg
  ED50 (MES): 0.7 to 0.8 mg/kg
  IV peak of action: 1 min
mice; [10]
  ED50: 0.7 to 0.8 mg/kg
mice; i.v., 2.5 mg/kg
  % protection after 60 min.: 0%
mice; i.v., after 60 min
  protection against MES after 60 min.: no more protection was observed

## Cc1c(Br)cc2nc(O)c(O)nc2c1[N+](=O)[O-] [NO2 Me Br H, 7-Bromo-6-methyl-5-nitro-1,4-dihydroquinoxaline-2,3-dione]
[4]
  Ki: 40 nM

## O=[N+]([O-])c1c(OCCCc2ccccc2)c(F)cc2nc(O)c(O)nc12 [NO2 O(CH2)3 Ph F H, 7-Fluoro-6(3-phenylpropoxy)-5-nitro-1,4-dihydroquinoxaline-2,3-dione]
[4]
  Ki: 6700 nM

## CCCCOc1c(F)cc2nc(O)c(O)nc2c1[N+](=O)[O-] [NO2 OBu-n F H, 7-Fluoro-6-(n-butoxy)-5-nitro-1,4-dihydroquinoxaline-2,3-dione]
[4]
  Ki: 6500 nM

## COc1c(Cl)cc2[nH]c(=O)c(=O)[nH]c2c1[N+](=O)[O-] [NO2 OMe Cl H, 7-Chloro-6-methoxy-5-nitro-1,4-dihydroquinoxaline-2,3-dione]
[4]
  Ki: 450 nM

## c1ccc(C2(N3CCCCC3)CCCCC2)cc1 [PCP, phencyclidine]
neurons
  neuroprotective efficacy: have neuroprotective efficacy both in vitro and in vivo

## COc1ccc2c(c1)[C@]13CCCC[C@@H]1[C@H](C2)N(C)CC3 [dextromethorphan]
neurons
  neuroprotective efficacy: have neuroprotective efficacy both in vitro and in vivo

## O=C(O)c1cc2ccccc2[nH]1 [indole-2-carboxylic acid]
[1]
  glycine site antagonism or affinity (words): relatively high receptor binding affinity in vitro
[2]; literature
  penetration of the blood/brain barrier (words): cannot penetrate the blood/brain barrier

## CNC1(c2ccccc2Cl)CCCCC1=O (stereo not drawn) [ketamine]
neurons
  neuroprotective efficacy: have neuroprotective efficacy both in vitro and in vivo

Reference: patent US6251903A, “Alkyl, azido, alkoxy, and fluoro-substituted and fused quinoxalinediones and the use thereof as glycine receptor antagonist” (priority 2000, dated 2001)
